The text below walks through data of patent publication US11352371B2, “Thienopyrimidine derivatives as ACC inhibitors and uses thereof” (Gilead Sciences, Inc., priority 2019, dated 2022).

One series deals with HepG2 cells. Description: In vitro De Novo Lipogenesis (DNL) assay, 13C-acetate incorporation into palmitic acid. Format: cell-based. As to conditions: Homo sapiens, 1 hour preincubation, 24 hours with 10 mM 13C-labeled acetate. The method, then: De Novo Lipogenesis (DNL) was measured in vitro in HepG2 cells by quantifying the incorporation of ^13C-labeled acetate into palmitic acid.
HepG2 cells were plated in growth medium (DMEM (Corning cat #15-018-CM) supplemented with 10% FBS (HyClone cat #SH30071-03), and 1× penicillin, streptomycin, glutamine (Corning cat #30-009-CI)) at 10,000 cells/well in a 384-well cell culture-treated plate (Greiner cat #781091). The cells were then incubated overnight at 37° C., 5% CO2. The next day, the cells were washed twice with sterile DPBS (Corning cat #21-031-CM) and the culture medium was changed to fresh growth medium. The compounds of interest were dosed to cells, followed by a 1 hour incubation at 37° C., 5% CO2. ^13C-labeled acetate (Sigma-Aldrich cat #279315-1G) was added to the culture medium at a concentration of 10 mM and the cells were incubated for 24 hours at 37° C., 5% CO2.
In order to analyze the lipid content of the HepG2 cells, the culture medium was removed and the cells were lysed by adding 30 μL of 0.1 M NaOH. After 5 minutes of incubation at room temperature, 15 μL of cell lysate was transferred to a 384-well deep-well plate (Sigma-Aldrich cat #BR701355-48EA) containing 15 μL of 7.3% KOH in ethanol and mixed. This plate was sealed and incubated at 70° C. for 4 hours to hydrolyze the lipids to free fatty acids. 100 μL of acetonitrile was then added and the plate was spun at 3,700 g for 20 minutes to separate the organic and aqueous phases. 50 μL from the top (organic) phase was transferred to a new 384-well plate (NUNC cat #264573) and the samples were analyzed by mass spectrometry using a RapidFire coupled to a QTOF mass spectrometer. The sum of the area under curve (AUC) for palmitate containing 3 to 7 ^13C was normalized with the AUC of oleate and plotted against compound concentration to determine the potency of ACC inhibitors. […]

A short description of series [1]: Rat liver/plasma ratio determination. Format: in vivo, male Sprague-Dawley (SD) rats. Conditions: male SD rats, single oral dose 5 mg/kg or 10 mg/kg; for L/P Ratio (2 h): liver to plasma concentration 2 hours after dosing; for L/P Ratio (24 h): liver to plasma concentration 24 hours after dosing. The method, then:
Liver to plasma (L/P) ratios of certain example compounds were determined in male Sprague-Dawley (SD) rats 2 hours and 24 hours after their administration.
The in vivo phases of the rat L/P ratio determinations for example compounds were conducted at Covance Laboratories (Madison, Wis.) or Charles River Laboratories (Worcester, Wash.). Animals were housed and handled in accordance with the Guide for the Care and Use of Laboratory Animals, Institute of Laboratory Animal Resources. The protocols were reviewed and approved by Institutional Animal Care and Use Committees (IACUC). Male Sprague-Dawley (SD) rats weighing approximately 300 g were fasted overnight prior to dosing and up to 4 hours after dosing. Each example compound was dosed at a single dose at 5 mg/kg or 10 mg/kg orally by gavage to male SD rats (n=3 rats/group). The aqueous formulation contained ethyl alcohol and polyethylene glycol 300. Approximately 100 μL plasma and 0.5 g liver samples were collected from each animal either 2 hours or 24 hours after dosing. The liver samples were homogenized by hard tissue homogenizer probes (Omni International, Kennesaw, Ga.) with 4× extraction buffer. For LC-MS/MS analysis, plasma and liver samples were prepared through protein precipitation extraction and analyzed on a Scitex API 5500 or 6500 LC-MS/MS instrument (Applied Biosystems, Foster City, Calif.). Analyte was eluted on a 1.7 μm 50×2.1 mm Acquity UPLC BEH C18 column (Waters, Milford, Mass.) using mobile phase containing 0.1% formic acid and a linear gradient from 55% to 95% acetonitrile at a flow rate of 800 μL/min. A liver/plasma ratio for each compound was calculated using the liver and plasma concentrations at the corresponding time point (2 hours or 24 hours). Noncompartmental pharmacokinetic parameters were calculated using Phoenix 32 (Pharsight Corporation, Mountain View, Calif.).
To assess the liver loading potential of the compounds, rat liver/plasma ratios (Rat L/P Ratio) values were determined for example compounds and are listed below in Table 1 for 2 hour and 24 hour timepoints (Rat L/P Ratio (2h/24h)).

As to `COc1ccccc1[C@H](Cn1c(=O)n(C2(C(=O)NS(=O)(=O)C3(C)CC3)CC2)c(=O)c2c(C)c(-c3ncco3)sc21)O[C@@H]1C[C@H]2CC[C@@H](C1)O2` [Example 12, 1-(1-((R)-2-(((1R,3s,5S)-8-oxabicyclo[3.2.1]octan-3-yl)oxy)-2-(2-methoxyphenyl)ethyl)-5-methyl-6-(oxazol-2-yl)-2,4-dioxo-1,4-dihydrothieno[2,3-d]pyrimidin-3(2H)-yl)-N-((1-methylcyclopropyl)sulfonyl)cyclopropane-1-carboxamide], a half-maximal response in the series on HepG2 cells (EC50) required 1.7 nM. Besides, in series [1], the “L/P Ratio (2 h)” value is reported as 145 and the “L/P Ratio (24 h)” value was determined as 136.
Taken in the same sequence, the figures for `COc1ccc(F)cc1[C@H](Cn1c(=O)n(C(C)(C)C(=O)NS(=O)(=O)C2(C)CC2)c(=O)c2c(C)c(-n3nccn3)sc21)O[C@@H]1C[C@H]2CC[C@@H](C1)O2` [Example 20, 2-(1-((R)-2-(((1R,3s,5S)-8-oxabicyclo[3.2.1]octan-3-yl)oxy)-2-(5-fluoro-2-methoxyphenyl)ethyl)-5-methyl-2,4-dioxo-6-(2H-1,2,3-triazol-2-yl)-1,4-dihydrothieno[2,3-d]pyrimidin-3(2H)-yl)-2-methyl-N-((1-methylcyclopropyl)sulfonyl)propanamide] were 0.3 nM, 2515 and 2914.
The corresponding values for `Cc1c(-c2ncco2)sc2c1c(=O)n(C(C)(C)C(=O)NS(=O)(=O)C1(C)CC1)c(=O)n2C[C@H](O[C@@H]1C[C@H]2CC[C@@H](C1)O2)c1cc(F)ccc1OC(F)F` [Example 6, 2-(1-((R)-2-(((1R,3s,5S)-8-oxabicyclo[3.2.1]octan-3-yl)oxy)-2-(2-(difluoromethoxy)-5-fluorophenyl)ethyl)-5-methyl-6-(oxazol-2-yl)-2,4-dioxo-1,4-dihydrothieno[2,3-d]pyrimidin-3(2H)-yl)-2-methyl-N-((1-methylcyclopropyl)sulfonyl)propanamide] are 4.5 nM, 442 and 1106.
